Targets include RIPK2 (Homo sapiens, UniProt O43353); SIK2 (Homo sapiens, UniProt Q9H0K1); ZAK (Homo sapiens, UniProt Q9NYL2).
What all share (experiment): biochemical
Another test deals with T1, ACVR1B (Homo sapiens, UniProt P36896).
T1 sequence (P36896 1-505): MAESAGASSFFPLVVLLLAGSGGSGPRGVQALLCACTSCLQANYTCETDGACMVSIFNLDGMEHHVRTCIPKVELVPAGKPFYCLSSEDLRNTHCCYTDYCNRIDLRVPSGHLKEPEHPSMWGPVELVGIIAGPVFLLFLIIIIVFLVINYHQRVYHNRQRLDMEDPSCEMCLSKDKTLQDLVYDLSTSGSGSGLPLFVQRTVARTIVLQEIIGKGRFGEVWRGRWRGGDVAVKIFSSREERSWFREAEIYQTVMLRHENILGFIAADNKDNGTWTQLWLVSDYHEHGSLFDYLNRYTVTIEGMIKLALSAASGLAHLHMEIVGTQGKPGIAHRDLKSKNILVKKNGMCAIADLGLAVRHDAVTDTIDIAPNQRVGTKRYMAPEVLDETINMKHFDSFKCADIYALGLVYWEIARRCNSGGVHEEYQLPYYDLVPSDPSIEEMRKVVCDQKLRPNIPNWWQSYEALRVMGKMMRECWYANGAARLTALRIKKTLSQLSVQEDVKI

A further test has as its target T2, NEK9 (Homo sapiens, UniProt Q8TD19).
T2 sequence (Q8TD19 1-979): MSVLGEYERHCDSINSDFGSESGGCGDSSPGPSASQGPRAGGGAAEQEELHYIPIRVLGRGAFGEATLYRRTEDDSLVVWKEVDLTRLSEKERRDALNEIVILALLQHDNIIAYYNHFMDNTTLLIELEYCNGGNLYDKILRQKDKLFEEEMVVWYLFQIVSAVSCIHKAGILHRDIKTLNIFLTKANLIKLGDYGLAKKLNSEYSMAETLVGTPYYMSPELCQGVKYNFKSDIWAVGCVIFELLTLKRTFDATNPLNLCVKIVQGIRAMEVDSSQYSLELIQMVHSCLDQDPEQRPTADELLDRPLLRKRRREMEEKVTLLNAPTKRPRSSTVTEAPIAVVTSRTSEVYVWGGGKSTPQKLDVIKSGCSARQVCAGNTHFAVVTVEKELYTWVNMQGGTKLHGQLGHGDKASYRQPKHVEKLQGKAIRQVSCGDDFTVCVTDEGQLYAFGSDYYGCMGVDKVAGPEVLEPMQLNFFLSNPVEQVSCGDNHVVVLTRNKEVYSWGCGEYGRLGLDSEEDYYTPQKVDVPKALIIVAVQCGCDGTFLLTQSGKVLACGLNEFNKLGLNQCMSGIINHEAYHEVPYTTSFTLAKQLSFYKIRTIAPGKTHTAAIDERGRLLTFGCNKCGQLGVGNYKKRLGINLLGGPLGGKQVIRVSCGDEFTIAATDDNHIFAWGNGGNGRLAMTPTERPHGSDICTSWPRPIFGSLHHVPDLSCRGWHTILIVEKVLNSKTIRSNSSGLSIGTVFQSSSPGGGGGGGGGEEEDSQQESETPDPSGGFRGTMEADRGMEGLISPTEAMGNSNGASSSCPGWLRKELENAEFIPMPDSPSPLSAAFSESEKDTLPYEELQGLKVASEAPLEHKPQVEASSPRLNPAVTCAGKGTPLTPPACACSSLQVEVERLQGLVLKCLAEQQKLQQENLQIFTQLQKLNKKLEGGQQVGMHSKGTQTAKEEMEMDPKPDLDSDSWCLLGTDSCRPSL

In another test the target is T3, PRKD3 (Homo sapiens, UniProt O94806).
T3 sequence (O94806 1-890): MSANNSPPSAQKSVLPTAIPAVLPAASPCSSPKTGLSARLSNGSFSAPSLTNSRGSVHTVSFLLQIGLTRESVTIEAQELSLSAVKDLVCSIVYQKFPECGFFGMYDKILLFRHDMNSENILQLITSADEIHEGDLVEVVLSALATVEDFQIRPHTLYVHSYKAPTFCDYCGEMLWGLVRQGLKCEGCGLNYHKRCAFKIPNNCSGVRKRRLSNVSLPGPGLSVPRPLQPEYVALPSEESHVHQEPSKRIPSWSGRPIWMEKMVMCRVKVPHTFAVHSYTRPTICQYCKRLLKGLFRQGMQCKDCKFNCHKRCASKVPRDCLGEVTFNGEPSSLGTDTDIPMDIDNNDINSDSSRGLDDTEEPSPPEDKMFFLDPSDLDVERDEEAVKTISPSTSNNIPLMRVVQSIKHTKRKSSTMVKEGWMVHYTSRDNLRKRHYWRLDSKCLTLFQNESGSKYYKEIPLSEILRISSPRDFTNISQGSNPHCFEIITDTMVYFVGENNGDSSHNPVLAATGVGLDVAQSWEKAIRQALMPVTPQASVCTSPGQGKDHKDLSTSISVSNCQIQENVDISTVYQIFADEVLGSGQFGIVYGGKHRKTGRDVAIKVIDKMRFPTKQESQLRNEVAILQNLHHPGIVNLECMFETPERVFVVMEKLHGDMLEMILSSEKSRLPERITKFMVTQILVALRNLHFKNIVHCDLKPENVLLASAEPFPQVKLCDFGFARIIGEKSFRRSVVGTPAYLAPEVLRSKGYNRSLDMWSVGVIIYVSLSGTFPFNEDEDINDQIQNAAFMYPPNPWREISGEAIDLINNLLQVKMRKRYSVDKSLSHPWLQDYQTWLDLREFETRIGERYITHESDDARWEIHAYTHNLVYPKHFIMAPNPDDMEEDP

A further test concerns the target T4, PRKX (Homo sapiens, UniProt P51817).
T4 sequence (P51817 1-358): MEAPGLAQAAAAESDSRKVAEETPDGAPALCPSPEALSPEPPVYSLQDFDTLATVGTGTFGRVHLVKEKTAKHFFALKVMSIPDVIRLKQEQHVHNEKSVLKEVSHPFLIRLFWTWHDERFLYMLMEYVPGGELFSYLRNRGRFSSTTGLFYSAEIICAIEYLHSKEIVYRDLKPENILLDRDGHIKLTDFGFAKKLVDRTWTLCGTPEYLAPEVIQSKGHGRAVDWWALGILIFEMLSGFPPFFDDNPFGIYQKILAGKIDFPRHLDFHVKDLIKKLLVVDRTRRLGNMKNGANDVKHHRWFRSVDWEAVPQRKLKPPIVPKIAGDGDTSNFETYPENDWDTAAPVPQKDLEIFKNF

Values joined by “and” are separate entries in the source; they are usually repeats but may differ in a detail not shown here. Equal values may be shown once.

SIK2, sequence (Q9H0K1 whole entry): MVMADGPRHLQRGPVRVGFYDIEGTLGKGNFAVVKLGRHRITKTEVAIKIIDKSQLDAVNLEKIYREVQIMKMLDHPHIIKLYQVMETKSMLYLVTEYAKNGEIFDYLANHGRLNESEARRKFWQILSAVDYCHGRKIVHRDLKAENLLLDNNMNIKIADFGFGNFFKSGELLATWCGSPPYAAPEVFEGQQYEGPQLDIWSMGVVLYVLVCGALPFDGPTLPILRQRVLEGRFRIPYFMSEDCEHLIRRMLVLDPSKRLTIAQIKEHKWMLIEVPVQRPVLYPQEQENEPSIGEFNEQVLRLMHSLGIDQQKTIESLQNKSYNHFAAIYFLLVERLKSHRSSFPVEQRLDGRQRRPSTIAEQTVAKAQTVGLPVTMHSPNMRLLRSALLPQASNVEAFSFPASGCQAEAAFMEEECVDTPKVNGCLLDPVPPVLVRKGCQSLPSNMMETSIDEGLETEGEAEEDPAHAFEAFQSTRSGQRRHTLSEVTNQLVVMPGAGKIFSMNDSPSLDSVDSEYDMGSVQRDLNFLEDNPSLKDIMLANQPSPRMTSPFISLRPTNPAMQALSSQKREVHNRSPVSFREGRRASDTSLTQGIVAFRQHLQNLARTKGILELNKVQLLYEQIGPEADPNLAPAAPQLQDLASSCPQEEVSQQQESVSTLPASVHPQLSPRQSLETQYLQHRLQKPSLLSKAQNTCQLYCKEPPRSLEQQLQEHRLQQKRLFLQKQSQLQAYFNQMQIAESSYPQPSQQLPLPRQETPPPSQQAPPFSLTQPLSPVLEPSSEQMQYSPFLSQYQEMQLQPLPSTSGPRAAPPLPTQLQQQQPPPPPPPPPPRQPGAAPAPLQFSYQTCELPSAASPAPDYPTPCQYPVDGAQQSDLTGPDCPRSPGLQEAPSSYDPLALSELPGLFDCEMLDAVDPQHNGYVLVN
ZAK, sequence (Q9NYL2 whole entry): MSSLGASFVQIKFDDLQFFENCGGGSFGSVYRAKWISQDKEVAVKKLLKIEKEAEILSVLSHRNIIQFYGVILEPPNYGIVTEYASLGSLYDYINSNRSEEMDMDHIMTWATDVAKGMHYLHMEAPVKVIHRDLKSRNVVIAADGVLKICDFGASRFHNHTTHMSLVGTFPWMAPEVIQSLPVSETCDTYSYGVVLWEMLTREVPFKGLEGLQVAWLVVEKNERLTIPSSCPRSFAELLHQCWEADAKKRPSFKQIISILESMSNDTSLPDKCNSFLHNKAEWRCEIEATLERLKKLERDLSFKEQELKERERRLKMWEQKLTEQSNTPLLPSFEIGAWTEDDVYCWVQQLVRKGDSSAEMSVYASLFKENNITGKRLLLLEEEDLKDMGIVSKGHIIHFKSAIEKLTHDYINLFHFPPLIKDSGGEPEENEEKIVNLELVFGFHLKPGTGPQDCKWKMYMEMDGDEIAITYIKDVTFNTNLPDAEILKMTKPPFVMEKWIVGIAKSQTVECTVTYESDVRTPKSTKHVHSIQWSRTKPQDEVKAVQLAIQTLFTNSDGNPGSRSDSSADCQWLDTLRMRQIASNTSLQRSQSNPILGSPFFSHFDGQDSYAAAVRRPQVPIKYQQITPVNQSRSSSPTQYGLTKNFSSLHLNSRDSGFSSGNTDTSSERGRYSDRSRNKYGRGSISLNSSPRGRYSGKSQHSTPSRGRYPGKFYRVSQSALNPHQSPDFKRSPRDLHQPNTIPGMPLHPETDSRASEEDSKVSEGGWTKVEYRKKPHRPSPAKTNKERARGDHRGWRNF
RIPK2, sequence (O43353 whole entry): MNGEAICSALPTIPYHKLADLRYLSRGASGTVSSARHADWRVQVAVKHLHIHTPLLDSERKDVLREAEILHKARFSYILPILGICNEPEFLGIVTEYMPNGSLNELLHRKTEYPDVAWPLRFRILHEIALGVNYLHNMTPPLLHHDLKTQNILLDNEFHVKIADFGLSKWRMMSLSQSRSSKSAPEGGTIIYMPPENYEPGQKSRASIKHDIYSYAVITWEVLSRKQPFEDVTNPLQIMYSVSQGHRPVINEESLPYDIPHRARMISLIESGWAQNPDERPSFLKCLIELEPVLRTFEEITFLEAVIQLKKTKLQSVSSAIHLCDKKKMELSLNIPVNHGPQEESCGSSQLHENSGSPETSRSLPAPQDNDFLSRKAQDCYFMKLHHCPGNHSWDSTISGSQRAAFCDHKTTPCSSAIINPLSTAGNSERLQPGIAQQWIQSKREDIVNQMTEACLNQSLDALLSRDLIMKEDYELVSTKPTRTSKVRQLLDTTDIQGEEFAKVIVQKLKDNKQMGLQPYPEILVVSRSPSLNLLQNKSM

On to `CN1CCN(c2ccc(Nc3ncc(C#N)c(Nc4ccccc4C(N)=O)n3)cc2)CC1.Cl` [TCMDC-134116], for which the IC50 against ACVR1B is 4000 nM; at NEK9, 770 nM and 580 nM; on PRKD3 it was 370 nM; against PRKX, 1300 nM; against RIPK2, 810 nM; against SIK2, ≤ 32 nM and 35 nM. This molecule also had a half-maximal inhibitory concentration (IC50) on ZAK of 950 nM.
Take `Cl.NCC1(c2nc(-c3ccc(Cl)c(O)c3)c(-c3ccncc3)[nH]2)CCCCC1` [TCMDC-141154]: the half-maximal inhibitory concentration (IC50) against ACVR1B is 590 nM; against NEK9, over 20000 nM; on PRKD3, 8700 nM; on PRKX it was over 20000 nM; against RIPK2, 43 nM and 52 nM; against SIK2, 570 nM and 530 nM. Moreover, the IC50 against ZAK is 8600 nM and 5100 nM.
As to `CN(C)CC(O)COc1ccc(Nc2ncc([N+](=O)[O-])c(Nc3ccccc3O)n2)cc1.O=C(O)C(F)(F)F` (stereo not drawn) [TCMDC-141399], the IC50 against ACVR1B was over 20000 nM; on NEK9 it was over 20000 nM; against PRKD3, 9100 nM and 7600 nM; at PRKX, over 20000 nM; on RIPK2, over 20000 nM; against SIK2, over 20000 nM. This molecule also yielded an IC50 on ZAK of over 20000 nM.

The IC50 is the midpoint of a concentration-inhibition curve. Higher therefore signals a need for much substance.
